# Experimental data reported in paper PMC6152052, “Molecular Structure–Affinity Relationship of Flavonoids in Lotus Leaf (Nelumbo nucifera Gaertn.) on Binding to Human Serum Albumin and Bovine Serum Albumin by Spectroscopic Method” (Molecules : A Journal of Synthetic Chemistry and Natural …, 2017).
# Where two headings read alike, the source gives them in different places.
# Legend:
# [1] = molecular target: T1, bovine serum albumin (BSA) (Bos taurus, UniProt P02769); experiment: intrinsic fluorescence quenching, double-log plot; type: binding
# T1 construct: gene ALB
# T1 sequence (P02769 25-607): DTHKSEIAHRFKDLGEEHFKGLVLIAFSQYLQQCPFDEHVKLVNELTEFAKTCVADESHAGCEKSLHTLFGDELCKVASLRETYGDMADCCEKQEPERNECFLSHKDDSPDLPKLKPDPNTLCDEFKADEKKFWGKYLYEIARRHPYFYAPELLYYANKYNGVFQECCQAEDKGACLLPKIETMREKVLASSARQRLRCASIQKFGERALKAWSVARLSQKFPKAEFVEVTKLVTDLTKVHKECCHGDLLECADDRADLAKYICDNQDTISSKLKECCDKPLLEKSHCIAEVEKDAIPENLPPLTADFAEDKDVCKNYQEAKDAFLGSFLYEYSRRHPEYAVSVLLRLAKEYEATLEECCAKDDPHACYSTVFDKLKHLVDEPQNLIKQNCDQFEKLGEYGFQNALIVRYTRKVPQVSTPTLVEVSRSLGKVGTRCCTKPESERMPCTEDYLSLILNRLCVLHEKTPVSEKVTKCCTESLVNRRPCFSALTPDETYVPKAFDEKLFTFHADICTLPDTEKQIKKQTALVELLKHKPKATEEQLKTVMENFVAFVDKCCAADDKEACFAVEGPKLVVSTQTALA
# Excerpt: intrinsic fluorescence quenching, double-log plot on bovine serum albumin (BSA)
# [2] = molecular target: T2, human serum albumin (HSA) (Homo sapiens, UniProt P02768); experiment: intrinsic fluorescence quenching, double-log plot; type: binding
# T2 construct: gene ALB; 585 residues, 66,500 Da, single non-glycosylated chain
# T2 sequence (P02768 25-609): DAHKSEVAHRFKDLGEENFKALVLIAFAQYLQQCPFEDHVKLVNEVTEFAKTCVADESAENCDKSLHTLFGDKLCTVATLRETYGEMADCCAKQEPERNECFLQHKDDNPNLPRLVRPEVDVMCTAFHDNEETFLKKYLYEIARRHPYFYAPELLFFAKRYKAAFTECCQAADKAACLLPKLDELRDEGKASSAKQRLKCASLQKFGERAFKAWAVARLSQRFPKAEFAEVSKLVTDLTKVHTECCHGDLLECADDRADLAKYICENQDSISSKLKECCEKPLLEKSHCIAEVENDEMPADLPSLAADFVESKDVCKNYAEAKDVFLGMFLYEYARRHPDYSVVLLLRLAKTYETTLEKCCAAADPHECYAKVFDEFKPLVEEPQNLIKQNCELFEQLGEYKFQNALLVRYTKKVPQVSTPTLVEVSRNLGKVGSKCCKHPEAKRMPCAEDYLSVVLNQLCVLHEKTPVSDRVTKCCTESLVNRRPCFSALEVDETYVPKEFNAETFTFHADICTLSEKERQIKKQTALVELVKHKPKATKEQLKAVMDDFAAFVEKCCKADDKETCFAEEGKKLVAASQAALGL
# Excerpt: intrinsic fluorescence quenching, double-log plot on human serum albumin (HSA)
smiles,measurement,setting,value
"O=C1C[C@@H](c2ccc(O)cc2)Oc2cc(O)cc(O)c21 [compound 9, naringenin]",BSA Affinity / logKa,[1],6.982 log (L/mol)
same,HSA Affinity / logKa,[2],6.493 log (L/mol)
"O=c1cc(-c2ccc(O)cc2)oc2cc(O)cc(O)c12 [compound 8, apigenin]",BSA Affinity / logKa,"[1]; PBS pH 7.4, 300.15 K, ex 280 nm, em 341 nm, n = 0.870, double-log",7.086 log (L/mol)
same,HSA Affinity / logKa,"[2]; PBS pH 7.4, 300.15 K, ex 280 nm, em 336 nm, n = 0.962, double-log",6.655 log (L/mol)
"O=c1c(O[C@@H]2O[C@H](CO)[C@@H](O)[C@H](O)[C@H]2O)c(-c2ccc(O)cc2)oc2cc(O)cc(O)c12 [compound 1, astragalin]",BSA Affinity / logKa,"[1]; PBS pH 7.4, 300.15 K, ex 280 nm, em 341 nm, n = 0.963, double-log",6.359 log (L/mol)
same,HSA Affinity / logKa,"[2]; PBS pH 7.4, 300.15 K, ex 280 nm, em 336 nm, n = 0.994, double-log",6.234 log (L/mol)
"O=c1cc(-c2ccc(O)c(O)c2)oc2cc(O)cc(O)c12 [compound 6, luteolin]",BSA Affinity / logKa,"[1]; PBS pH 7.4, 300.15 K, ex 280 nm, em 341 nm, n = 0.923, double-log",7.110 log (L/mol)
same,HSA Affinity / logKa,"[2]; PBS pH 7.4, 300.15 K, ex 280 nm, em 336 nm, n = 0.904, double-log",7.064 log (L/mol)
"O=c1c(O)c(-c2ccc(O)cc2)oc2cc(O)cc(O)c12 [compound 10, kaempferol]",BSA Affinity / logKa,"[1]; PBS pH 7.4, 300.15 K, ex 280 nm, em 341 nm, n = 0.911, double-log",7.106 log (L/mol)
same,HSA Affinity / logKa,"[2]; PBS pH 7.4, 300.15 K, ex 280 nm, em 336 nm, n = 0.918, double-log",6.830 log (L/mol)
"O=c1c(O)c(-c2ccc(O)c(O)c2)oc2cc(O)cc(O)c12 [compound 7, quercetin]",BSA Affinity / logKa,[1],7.299 log (L/mol)
same,HSA Affinity / logKa,[2],7.089 log (L/mol)
"O=c1c(O[C@@H]2O[C@H](CO)[C@H](O)[C@H](O)[C@H]2O)c(-c2ccc(O)c(O)c2)oc2cc(O)cc(O)c12 [compound 3, hyperoside]",BSA Affinity / logKa,"[1]; PBS pH 7.4, 300.15 K, ex 280 nm, em 341 nm, n = 0.950, double-log",6.891 log (L/mol)
same,HSA Affinity / logKa,"[2]; PBS pH 7.4, 300.15 K, ex 280 nm, em 336 nm, n = 0.960, double-log",6.802 log (L/mol)
"O=c1c(O[C@@H]2O[C@H](CO)[C@@H](O)[C@H](O)[C@H]2O)c(-c2ccc(O)c(O)c2)oc2cc(O)cc(O)c12 [compound 4, isoquercitrin]",BSA Affinity / logKa,"[1]; PBS pH 7.4, 300.15 K, ex 280 nm, em 341 nm, n = 0.938, double-log",7.095 log (L/mol)
same,HSA Affinity / logKa,"[2]; PBS pH 7.4, 300.15 K, ex 280 nm, em 336 nm, n = 0.936, double-log",6.584 log (L/mol)
"COc1cc(-c2oc3cc(O)cc(O)c3c(=O)c2O)ccc1O [compound 11, isorhamnetin]",BSA Affinity / logKa,"[1]; PBS pH 7.4, 300.15 K, ex 280 nm, em 341 nm, n = 0.941, double-log",6.828 log (L/mol)
same,HSA Affinity / logKa,"[2]; PBS pH 7.4, 300.15 K, ex 280 nm, em 336 nm, n = 0.923, double-log",6.798 log (L/mol)
"C[C@@H]1O[C@@H](OC[C@H]2O[C@@H](Oc3c(-c4ccc(O)c(O)c4)oc4cc(O)cc(O)c4c3=O)[C@H](O)[C@@H](O)[C@@H]2O)[C@H](O)[C@H](O)[C@H]1O [compound 2, rutin]",BSA Affinity / logKa,"[1]; PBS pH 7.4, 300.15 K, ex 280 nm, em 341 nm, n = 0.962, double-log",6.686 log (L/mol)
same,HSA Affinity / logKa,"[2]; PBS pH 7.4, 300.15 K, ex 280 nm, em 336 nm, n = 0.992, double-log",5.896 log (L/mol)
"O=C1c2c(O)cc(O)cc2O[C@H](c2ccc(O)c(O)c2)[C@H]1O [compound 5, taxifolin]",BSA Affinity / logKa,[1],7.067 log (L/mol)
same,HSA Affinity / logKa,[2],6.748 log (L/mol)
